From patent US9028887B2, “Method improve spatial memory via pterostilbene administration” (The United States of America, as represented by the …, priority 2007, dated 2015) come the findings set out here.

For this assay, the system named is M1-transfected COS-7 cells. The experiment in a line: Calcium recovery in M1-transfected COS-7 cells after dopamine treatment and oxotremorine-induced depolarization. Type of assay: cell-based, African green monkey. The settings on record: then 1 mM dopamine 4 hours, 750 μM oxotremorine depolarization. The method, then: COS-7 cells, a cell line derived from African green monkey kidney, were grown in Dulbecco's Modified Eagle's Medium (D-MEM) supplemented with 10% fetal bovine serum (FBS) and containing 100 U/ml penicillin and 100 μg/ml streptomycin sulfate. Twenty four hours prior to transfection, cells were harvested with trypsin, counted, and plated on […] tissue culture plates at 5×10^6 cells/plate. Cells were transiently transfected with rat muscarinic receptor subtype 1 DNA by the DEAE-dextran method. After transfection, cells were incubated 2.5 hours in growth medium containing 80 μM chloroquine to minimize degradation of the DNA. Transfected cells were then maintained in growth medium for 48 hours, harvested with trypsin, plated to coverslips in 35 mm plates for calcium imaging, and incubated overnight.
Dis. 6:403-411, and hereby incorporated by reference. The BB extract and stilbenes were dissolved in growth media and cells were subsequently incubated for 45 minutes at 37° C. with the treated growth medium, followed by dopamine administration for 4 hours. Following these incubations, the cells were washed three times with extract-free growth medium prior to testing.
Calcium imaging was carried out using a Medical Systems Corp. open perfusion micro-incubator (37° C.) with temperature control that was mounted on the stage of a Nikon Eclipse TE200U microscope and illuminated with a fluorescent light source. Transfected cells were loaded with Fura-2/acetoxymethyl ester (2 μM) in loading medium (99% DMEM 1% FES) for 40 minutes at 37° C. with 5% CO2.
Real time analyses of calcium flux prior to and following 750 μM oxotremorine-induced depolarization were then carried out using Simple PCI software (Compix, Inc. Mars, Pa.). Response and recovery were then determined for each sample. […] Recovery was determined by assessing the time (within 300 sec) for the Ca^2+ levels to return to 20% of the increase following depolarization in the cells that responded. Data was analyzed by Kruskal-Wallis one-way analysis of variance and Mann-Whitney U tests.

Structures are written as SMILES.

Take `COc1cc(/C=C/c2ccc(O[C@@H]3O[C@H](CO)[C@@H](O)[C@H](O)[C@H]3O)cc2)cc(OC)c1` [pterostilbene glucoside]: the “protection against dopamine-induced decreases in Ca2+ Recovery” value (10 μg/ml pre-treatment 45 min) is listed as “protected against the dopamine-induced decreases in Recovery”.

With `COc1ccc(/C=C/c2cc(O)cc(O)c2)cc1` [desoxyrhapontigenin, trans-3,5-dihydroxy-4′-methoxystilbene], the “protection against dopamine-induced decreases in Ca2+ Recovery” value (25 μg/ml pre-treatment 45 min) is reported as “offered no protection”.

Turning to `COc1cc(O)cc(/C=C/c2ccc(O)cc2)c1` [pinostilbene, trans-3,4′-dihydroxy-5-methoxystilbene], the “protection against dopamine-induced decreases in Ca2+ Recovery” value (50 μg/ml pre-treatment 45 min) is on record as “offered no protection”.

For the compound `Oc1cc(O)cc(/C=C/c2ccc(O)c(O)c2)c1` [piceatannol, trans-3,4,3′,5′-tetrahydroxystilbene], for the setting “10 μg/ml pre-treatment 45 min”, the “protection against dopamine-induced decreases in Ca2+ Recovery” value is on record as “protected against the dopamine-induced decreases in Recovery”.

Turning to `COc1ccc(/C=C/c2cc(OC)cc(OC)c2)cc1` [resveratrol trimethylether, trans-3,5,4′-trimethyletherstilbene], where the note is “10 μg/ml pre-treatment 45 min”, the “protection against dopamine-induced decreases in Ca2+ Recovery” value is given as “protected against the dopamine-induced decreases in Recovery”.

For the compound `Oc1ccc(/C=C/c2cc(O)cc(O)c2)cc1` [resveratrol, trans-3,5,4′-trihydroxystilbene], the “protection against dopamine-induced decreases in Ca2+ Recovery” value (50 μg/ml pre-treatment 45 min) is given as “offered no protection”.
